# According to BindingDB's records for patent US20250179023 (Abbisko Therapeutics, 2025):
# Biological target: Programmed cell death 1 ligand/protein 1 (Homo sapiens, UniProt Q9NZQ7)
# Assay: PD1-PDL1 HTRF Binding Activity Test
# Procedure: The effect of compounds of the examples of the present invention on the PD-1/PD-L1 interaction was determined by the PD-1/PD-L1 binding assay kit from Cisbio (#64ICP01PEG or 64ICP01PEH).
# Programmed cell death 1 ligand/protein 1, sequence (Q9NZQ7 whole entry): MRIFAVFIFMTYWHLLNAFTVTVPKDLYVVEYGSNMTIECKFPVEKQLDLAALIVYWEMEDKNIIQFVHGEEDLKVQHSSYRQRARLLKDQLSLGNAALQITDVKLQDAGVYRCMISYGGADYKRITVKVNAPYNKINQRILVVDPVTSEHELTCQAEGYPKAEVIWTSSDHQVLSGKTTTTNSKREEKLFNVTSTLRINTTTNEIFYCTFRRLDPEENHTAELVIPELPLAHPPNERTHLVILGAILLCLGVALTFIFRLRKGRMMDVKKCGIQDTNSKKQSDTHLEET
# Programmed cell death 1 ligand/protein 1, sequence (Q15116 whole entry, further chain): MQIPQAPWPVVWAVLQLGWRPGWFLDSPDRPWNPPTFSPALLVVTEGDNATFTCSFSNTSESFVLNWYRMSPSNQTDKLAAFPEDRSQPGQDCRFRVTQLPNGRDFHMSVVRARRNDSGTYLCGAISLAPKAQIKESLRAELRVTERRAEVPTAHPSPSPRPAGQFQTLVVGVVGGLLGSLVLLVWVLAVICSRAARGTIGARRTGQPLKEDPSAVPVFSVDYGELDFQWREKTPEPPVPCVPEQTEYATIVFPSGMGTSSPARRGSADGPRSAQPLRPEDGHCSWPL
smiles,measurement,value
"Cc1c(NC(=O)c2cc(C3CC3)c(CNCCC34CCC(C(=O)O)(CC3)C4)cn2)cccc1-c1cccc(NC(=O)c2cc(C3CC3)c(CNC34CCC(C(=O)O)(CC3)C4)cn2)c1C [US20250179023, Example 5]",IC50,4.19 nM
